How the values were obtained:
Assay in all cases: relative viability (nuclei count vs DMSO), 5 days (fraction); higher = more cells survive
Linsitinib + Trametinib = compound: C[C@]1(O)C[C@@H](c2nc(-c3ccc4ccc(-c5ccccc5)nc4c3)c3c(N)nccn32)C1 [Linsitinib] + CC(=O)Nc1cccc(-n2c(=O)n(C3CC3)c(=O)c3c(Nc4ccc(I)cc4F)n(C)c(=O)c(C)c32)c1 [Trametinib] (partner 0.02 µM)
Summary of the method: (§1)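 For relative viability, nuclei counts in treated wells were divided by those in vehicle wells. Lung cancer cell lines had been pin-tool dosed in 1536-well plates the day after seeding and cultured for 5 days, then fixed and stained in one step (final 0.05% Triton X-100, 1% formaldehyde, 1 ug/ml Hoechst) and imaged at 4×. Doses were one drug alone or a fixed anchor-drug dose plus five library-drug doses (not always all listed) in √10 steps, and values are duplicate-plate medians.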

Linsitinib + Pictilisib = compound: C[C@]1(O)C[C@@H](c2nc(-c3ccc4ccc(-c5ccccc5)nc4c3)c3c(N)nccn32)C1 [Linsitinib] + CS(=O)(=O)N1CCN(Cc2cc3nc(-c4cccc5[nH]ncc45)nc(N4CCOCC4)c3s2)CC1 [Pictilisib] (partner 1 µM)
Summary of the method: as §1

Linsitinib + Olaparib = compound: C[C@]1(O)C[C@@H](c2nc(-c3ccc4ccc(-c5ccccc5)nc4c3)c3c(N)nccn32)C1 [Linsitinib] + O=C(c1cc(Cc2n[nH]c(=O)c3ccccc23)ccc1F)N1CCN(C(=O)C2CC2)CC1 [Olaparib] (partner 8 µM)
Summary of the method: as §1

Ispinesib + OSI-027 = compound: Cc1ccc(C(=O)N(CCCN)[C@@H](c2nc3cc(Cl)ccc3c(=O)n2Cc2ccccc2)C(C)C)cc1 [Ispinesib] + COc1cccc2cc(-c3nc([C@H]4CC[C@H](C(=O)O)CC4)n4ncnc(N)c34)[nH]c12 [OSI-027] (partner 0.5 µM)
Summary of the method: as §1

With UMC-11 the relative viability (Linsitinib + Trametinib; first compound 0.01 µM) was 0.72, the relative viability (Linsitinib + Trametinib; first compound 0.03162 µM) was 0.76 and the relative viability (Linsitinib + Trametinib; first compound 0.1 µM) was 0.7. For the same cell line, the relative viability (Linsitinib + Trametinib; first compound 0.3162 µM) was 0.211, the relative viability (Linsitinib + Trametinib; first compound 1 µM) was 0.471 and the relative viability (Linsitinib + Pictilisib; first compound 0.01 µM) was 0.786. The relative viability (Linsitinib + Pictilisib; first compound 0.03162 µM) was 0.735, the relative viability (Linsitinib + Pictilisib; first compound 0.1 µM) was 0.834 and the relative viability (Linsitinib + Pictilisib; first compound 1 µM) was 0.691. It also gave a relative viability (Linsitinib + Olaparib; first compound 0.01 µM) of 0.361, a relative viability (Linsitinib + Olaparib; first compound 0.03162 µM) of 0.352 and a relative viability (Linsitinib + Olaparib; first compound 0.1 µM) of 0.421. For the same cell line, the relative viability (Linsitinib + Olaparib; first compound 0.3162 µM) was 0.273, the relative viability (Linsitinib + Olaparib; first compound 1 µM) was 0.329 and the relative viability (Ispinesib + OSI-027; first compound 0.001 µM) was 0.484. For the same cell line, the relative viability (Ispinesib + OSI-027; first compound 0.003162 µM) was 0.429, the relative viability (Ispinesib + OSI-027; first compound 0.01 µM) was 0.445 and the relative viability (Ispinesib + OSI-027; first compound 0.03162 µM) was 0.219. The relative viability (Ispinesib + OSI-027; first compound 0.1 µM) was 0.239.

Reference: the supplement of paper PMC10307832
